This note sets out measurements from patent US9603813B2, “Visual performance and/or macular pigmentation” (Howard Foundation Holdings Limited, priority 2011, dated 2017).

Series [1] has as its system Bovan Goldline hens. Briefly: Carotenoid contents of egg yolks from hens fed mixed carotenoids (HPLC). How it is done: Eight Bovan Goldline hens were obtained at approximately 18 weeks of age.
When the hens were producing at least 8 eggs per day in total, the hens were isolated and fed only a commercial meal. […] The premix provided 250 mg MZ/kg feed with proportions of L 50, MZ 30, Z 20.
The yolk carotenoids were measured in mixtures prepared from all eggs collected at baseline, three and six weeks.
Yolks were individually weighed and mixed with phosphate-buffered saline and made up to 50 ml. Two ml of each suspension was mixed in a separate universal tube for each of the three batches separately and stored at −40 C.
The egg yolk suspension (0.1 ml) was mixed with 0.15 ml aqueous KOH (25 gl100 mlwater), 0.15 ml absolute ethyl alcohol and 0.1 ml echinenone (internal standard, 0.4 mg/500 ml ethyl alcohol) in a glass extraction tube and incubated at 45 C for 45 minutes.
Solutions were then cooled and mixed vigorously with 1.5 ml hexane (containing BHT500 mg/l) and centrifuged to separate the hexane and aqueous layers. One ml of the upper hexane layer was transferred to an evaporating tube and the residue was re-extracted with 1.5 ml hexane. After centrifuging, 1.5 ml of the upper layer was removed and the extracts combined and evaporated to dryness under nitrogen at 40 C. The residue was made up to 0.15 ml with mobile phase (see Ultracarb HPLC below) and 0.1 ml was injected onto a Ultra Carb Column for HLPC analysis.
Separation and quantitation of the MZ was achieved using a two column procedure.
Ultracarb procedure: Extracts prepared as described above were reconstituted in a mobile phase comprising acetonitrile:methanol (85:15 containing 0.1% triethylamine). Using the same solvent mixture at 1.5 ml/min, extracts were chromatographed isocratically using a 3 micro m Ultracarb ODS column (250×4.6 mm, Phenomenex, UK) and detected using a photodiode-array detector (model 2996, Waters Ltd) to quantify L and Z+MZ at 450 nm. Eluent that coincided with the emergence of MZ+Z was collected from the waste line and evaporated to dryness under nitrogen.
Chiral chromoatography: The Z+MZ extract was then reconstituted in 0.1 ml of hexane:isopropanol (90:10) and 50 uL was chromatographed on a 10 micro m Chiralpak® AD column (250×4.6 mm; Chiral Technologies Europe, 67404 Illkirch Cedex, France) to determine the proportion of MZ and Z isomers using gradient elution at 0.8 ml/min starting with 90% hexane and 10% isopropyl alcohol and increasing to 95% hexane in a linear gradient over 30 minutes.

Series [2] is described as follows: Plasma carotenoids in one person consuming one egg per day (HPLC). Conditions: human, in vivo. As to the method: The objective of this study was to feed hens a mixture of L, MZ and Z to determine the total amount of MZ in the yolk. In addition 24 eggs collected at the end of the experiment were consumed by one subject, one egg/day and the blood MZ composition determined.
Blood (10 ml) from a human subject was collected in lithium heparin tubes at baseline, day 12 and day 24 after consumption of one egg per day and centrifuged to provide plasma subsequently stored at −40 C. Plasma, 0.25 ml was mixed with 0.2 ml sodium dodecyl sulphate, 0.4 ml ethyl acetate (internal standard). Hexane containing BHT (1.0 ml) was added and the mixture extracted vigorously for 4 minutes, centrifuged for 10 mins and 0.7 ml of the upper hexane layer removed and evaporated to dryness.
The residue was made up to 0.1 ml with mobile phase (see HPLC procedure below) and 0.05 ml was injected onto the column.

Where [3] appears, read: feeding 250 ppm of the carotenoid mixture for 3 weeks.

Each structure is given as a SMILES string.

With `CC1=C[C@H](O)CC(C)(C)[C@H]1/C=C/C(C)=C/C=C/C(C)=C/C=C/C=C(C)/C=C/C=C(C)/C=C/C1=C(C)C[C@@H](O)CC1(C)C` [L, lutein], the “contents of egg yolks from chicken fed 250 mg/kg mixed carotenoids” value (“contents of egg yolks” below) in series [1] (Weeks 0 (baseline)) stood at 563 micro grams per yolk; in series [1] (Weeks 3) it was 2100 micro grams per yolk; in series [1] (Weeks 6), 2260 micro grams per yolk. In addition, the “share of the yolk carotenoid content” value in series [1] (setting [3]) is listed as “circa 76%”. Moreover, the concentration at 12 day in series [2] came to 1200 nM. In series [2], this compound came in with a concentration at 24 day of 1060 nM. In addition, the “contents of plasma in one person consuming one egg per day” value in series [2] is listed as 0.55 micro moles per litre.
Take `CC1=C(/C=C/C(C)=C/C=C/C(C)=C/C=C/C=C(C)/C=C/C=C(C)/C=C/C2=C(C)C[C@H](O)CC2(C)C)C(C)(C)C[C@H](O)C1` [MZ, (trans, 3R, 3′S meso)-zeaxanthin]: the “contents of egg yolks” value turned out to be 0 micro grams per yolk in series [1] (Weeks 0 (baseline)), 315 micro grams per yolk in series [1] (Weeks 3) and 272 micro grams per yolk in series [1] (Weeks 6). The “content of egg yolks” value in series [1] (setting [3]) worked out at 2.78 mg MZ/yolk. Moreover, the “share of the yolk carotenoid content” value in series [1] (setting [3]) came to 11%.
Consider `CC1=C(/C=C/C(C)=C/C=C/C(C)=C/C=C/C=C(C)/C=C/C=C(C)/C=C/C2=C(C)C[C@@H](O)CC2(C)C)C(C)(C)C[C@H](O)C1` [Z, zeaxanthin], for which the “contents of egg yolks” value in series [1] (Weeks 0 (baseline)) was 278 micro grams per yolk; in series [1] (Weeks 3), 366 micro grams per yolk; in series [1] (Weeks 6) it was 328 micro grams per yolk. For the same compound, the “share of the yolk carotenoid content” value in series [1] (setting [3]) was determined as 13%.
